Measured values taken from ChEMBL document CHEMBL2203087, “Analogue-based design, synthesis and docking of non-steroidal anti-inflammatory agents. Part 2: methyl sulfanyl/methyl sulfonyl substituted 2,3-diaryl-2,3-dihydro-1H-quinazolin-4-ones” (Bioorg Med Chem, 2012).
Active and inactive are the calls of the source. The calls are words filed in the database; no cut-off is given here.

What was measured:
Rattus norvegicus [1] = assay: Antiinflammatory activity in rat assessed as inhibition of carrageenan-induced paw edema at 50 mg/kg, po measured at 360 mins after carrageenan challenge by plethysmographic analysis; type: functional; settings: 6 h
Rattus norvegicus [2] = assay: Antiinflammatory activity in rat assessed as inhibition of carrageenan-induced paw edema at 50 mg/kg, po measured at 270 mins after carrageenan challenge by plethysmographic analysis; type: functional; settings: 4.5 h
Rattus norvegicus [3] = assay: Antiinflammatory activity in rat assessed as inhibition of carrageenan-induced paw edema at 50 mg/kg, po measured at 180 mins after carrageenan challenge by plethysmographic analysis; type: functional; settings: 3 h
Rattus norvegicus [4] = assay: Antiinflammatory activity in rat assessed as inhibition of carrageenan-induced paw edema at 50 mg/kg, po measured at 90 mins after carrageenan challenge by plethysmographic analysis; type: functional; settings: 1.5 h
Ovis aries = species: Ovis aries; assay: Selectivity ratio of ovine COX1 to ovine COX2 at 20 uM
[5] = biological target: T1, Prostaglandin G/H synthase 1 (Ovis aries) (UniProt P05979); assay: Inhibition of ovine COX1 peroxidase activity assessed as TMPD oxidation at 20 uM by colorimetric analysis
T1 sequence (whole entry): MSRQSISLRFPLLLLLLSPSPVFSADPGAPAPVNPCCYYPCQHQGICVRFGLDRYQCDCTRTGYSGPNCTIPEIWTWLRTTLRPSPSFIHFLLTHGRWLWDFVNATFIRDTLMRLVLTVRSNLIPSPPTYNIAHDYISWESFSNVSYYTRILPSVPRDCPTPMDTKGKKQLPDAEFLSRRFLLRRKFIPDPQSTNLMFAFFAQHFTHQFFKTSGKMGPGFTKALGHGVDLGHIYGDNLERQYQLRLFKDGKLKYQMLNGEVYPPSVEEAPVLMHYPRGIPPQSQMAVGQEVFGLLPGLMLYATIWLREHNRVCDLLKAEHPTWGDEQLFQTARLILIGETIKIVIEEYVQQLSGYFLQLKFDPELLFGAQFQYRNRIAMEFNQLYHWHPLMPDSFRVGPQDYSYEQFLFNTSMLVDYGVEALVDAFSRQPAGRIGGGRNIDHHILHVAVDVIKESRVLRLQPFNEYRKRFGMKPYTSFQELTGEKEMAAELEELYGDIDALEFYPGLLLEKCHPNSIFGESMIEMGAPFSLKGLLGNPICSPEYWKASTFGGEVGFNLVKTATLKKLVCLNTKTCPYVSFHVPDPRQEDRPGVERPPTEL

Structure (SMILES) | inhibition in vivo at 50 mg/kg (Rattus norvegicus [1]) | inhibition in vivo at 50 mg/kg (Rattus norvegicus [2]) | inhibition in vivo at 50 mg/kg (Rattus norvegicus [3]) | inhibition in vivo at 50 mg/kg (Rattus norvegicus [4]) | Selectivity ratio (Ovis aries) | inhibition [5]
COc1ccc(N2C(=O)c3ccccc3NC2c2ccc(SC)cc2)cc1 (configuration not stated) | 40% | 38% | 35% | 33% |  | 
CSc1ccc(C2Nc3ccccc3C(=O)N2c2ccc(C)cc2)cc1 (configuration not stated) | 39% | 38% | 34% | 30% |  | 
Cc1ccc(N2C(=O)c3ccccc3NC2c2ccc(S(C)(=O)=O)cc2)cc1 (configuration not stated) | 40% | 39% | 35% | 34% | > 0.01 | inactive
CS(=O)(=O)c1ccc(C2Nc3ccccc3C(=O)N2c2ccc(F)cc2)cc1 (configuration not stated) | 48% | 45% | 43% | 38% | > 0.001 | inactive
CS(=O)(=O)c1ccc(C2Nc3ccccc3C(=O)N2c2ccc(Cl)cc2)cc1 (configuration not stated) | 51% | 46% | 42% | 37% | > 0.001 | inactive
CSc1ccc(C2Nc3ccccc3C(=O)N2c2ccc(F)cc2)cc1 (configuration not stated) | 44% | 42% | 39% | 32% |  | 
CSc1ccc(C2Nc3ccccc3C(=O)N2c2ccccc2)cc1 (configuration not stated) | 39% | 37% | 34% | 30% |  | 
CS(=O)(=O)c1ccc(C2Nc3ccccc3C(=O)N2c2ccccc2)cc1 (configuration not stated) | 40% | 38% | 35% | 31% | 0.742 | 49%
CSc1ccc(C2Nc3ccccc3C(=O)N2c2ccccc2F)cc1 (configuration not stated) | 41% | 39% | 37% | 33% |  | 
CSc1ccc(C2Nc3ccccc3C(=O)N2c2ccc(Cl)cc2)cc1 (configuration not stated) | 47% | 46% | 41% | 38% | 0.055 | 5%
COc1ccc(N2C(=O)c3ccccc3NC2c2ccc(S(C)(=O)=O)cc2)cc1 (configuration not stated) | 49% | 47% | 43% | 39% | 0.577 | 41%
CS(=O)(=O)c1ccc(C2Nc3ccccc3C(=O)N2c2ccccc2F)cc1 (configuration not stated) | 44% | 42% | 39% | 36% | 0.278 | 15%
